Data published in PMC6340882, “Targeting protein kinase CK2 and CDK4/6 pathways with a multi-kinase inhibitor ON108110 suppresses pro-survival signaling and growth in mantle cell lymphoma and T-acute lymphoblastic leukemia” (Oncotarget, 2018).

What was measured:
[1] = test system: 22Rv1; test: Growth inhibition (GI50), Cell Titer Blue; type: cell-based; conditions: Homo sapiens; 22Rv1, Prostate Cancer; 96 hrs post-treatment
Protocol: (§1) Cell lines were cultured in RPMI-1640 medium (Thermo Scientific) supplemented with 10% heat inactivated FBS and penicillin-streptomycin at 37°C under humidified conditions and 5% CO2. All cell lines tested negative for mycoplasma. […] Compounds were added 24 hrs post-plating at the indicated concentrations. Cell counts were determined from duplicate wells 96 hrs post-treatment using the Cell Titer Blue assay in conjunction with the GloMax plate reader (Promega).

[2] = test system: AsPc1; test: Growth inhibition (GI50), Cell Titer Blue; type: cell-based; conditions: Homo sapiens; AsPc1, Pancreatic Cancer; 96 hrs post-treatment
Protocol: as §1

[3] = test system: BT-20; test: Growth inhibition (GI50), Cell Titer Blue; type: cell-based; conditions: Homo sapiens; BT-20, Breast Cancer; 96 hrs post-treatment
Protocol: as §1

[4] = test system: GRANTA-519; test: Growth inhibition (GI50), Cell Titer Blue; type: cell-based; conditions: Homo sapiens; GRANTA-519, Mantle Cell Lymphoma; 96 hrs post-treatment
Protocol: as §1

[5] = test system: HBL2; test: Growth inhibition (GI50), Cell Titer Blue; type: cell-based; conditions: Homo sapiens; HBL2, Mantle Cell Lymphoma; 96 hrs post-treatment
Protocol: as §1

[6] = test system: JVM2; test: Growth inhibition (GI50), Cell Titer Blue; type: cell-based; conditions: Homo sapiens, JVM-2; JVM2, Mantle Cell Lymphoma; 96 hrs post-treatment
Protocol: as §1

[7] = test system: K562; test: Growth inhibition (GI50), Cell Titer Blue; type: cell-based; conditions: Homo sapiens; K562, Chronic Myeloid Leukemia; 96 hrs post-treatment
Protocol: as §1

[8] = test system: LnCap; test: Growth inhibition (GI50), Cell Titer Blue; type: cell-based; conditions: Homo sapiens, Prostate Cancer, 96 hrs post-treatment
Protocol: as §1

[9] = test system: MCF-7; test: Growth inhibition (GI50), Cell Titer Blue; type: cell-based; conditions: Homo sapiens, MCF7; MCF-7, Breast Cancer; 96 hrs post-treatment
Protocol: as §1

[10] = test system: MOLT-4; test: Growth inhibition (GI50), Cell Titer Blue; type: cell-based; conditions: Homo sapiens; MOLT-4, Acute Lymphoblastic Leukemia; 96 hrs post-treatment
Protocol: as §1

[11] = test system: MiaPaca-2; test: Growth inhibition (GI50), Cell Titer Blue; type: cell-based; conditions: Homo sapiens, MIA PaCa-2; MiaPaca-2, Pancreatic Cancer; 96 hrs post-treatment
Protocol: as §1

[12] = test system: Z138C; test: Growth inhibition (GI50), Cell Titer Blue; type: cell-based; conditions: Homo sapiens, Mantle Cell Lymphoma, 96 hrs post-treatment
Protocol: as §1

[13] = target: CDK4/CyclinD1 (Homo sapiens, UniProt P11802); test: Kinase panel profiling (Reaction Biology Corp); type: biochemical; conditions: CDK4/CyclinD1, kinase inhibition profile
Protocol: (§2) Initial testing of ON108110 against a panel of 285 functional kinases was performed by Reaction Biology Corp (Malvern, PA). Recombinant CDK4/CYCLIN D1 or CK2α1 were mixed with their respective synthetic peptide substrates (10ng) and incubated with DMSO or increasing concentrations of ON108110 in 20μl kinase buffer [50mM Tris-HCl (pH 7.5), 10mM MgCl2, 1mM EGTA, 2mM DTT and 0.01% NP-40] for 30 min. at room temperature. Kinase reactions were carried out for 20 min at 30°C in the presence of 5μl of substrate-ATP mixture (1μg RB, 20μM ATP, 20μCi γ-^32P-ATP). The reactions were incubated at 30°C for 20 minutes, terminated by addition of 0.5M O-phosphoric acid and 10μl of the reaction mixture was spotted on P-30 Filtermat membranes (Wallac #1450-523). The filtermat was air-dried, blocked with methanol for 2 minutes followed by three washes with 75mM phosphoric acid. The filtermat was then air-dried and analyzed using a phosphoimager. Densitometric values were plotted as a function of log drug concentration using Prism 4 GraphPad software and the IC50 values determined by plotting sigmoidal non-linear regression curves with variable slope (n=3).

[14] = target: CDK4/CyclinD3 (Homo sapiens, UniProt P11802); test: Kinase panel profiling (Reaction Biology Corp); type: biochemical; conditions: CDK4/CyclinD3, kinase inhibition profile
Protocol: as §2

[15] = target: CDK5/P25 (Homo sapiens, UniProt Q00535); test: Kinase panel profiling (Reaction Biology Corp); type: biochemical; conditions: CDK5/P25, kinase inhibition profile
Protocol: as §2

[16] = target: CDK6/CyclinD1 (Homo sapiens, UniProt Q00534); test: Kinase panel profiling (Reaction Biology Corp); type: biochemical; conditions: CDK6/CyclinD1, kinase inhibition profile
Protocol: as §2

[17] = target: CDK6/CyclinD3 (Homo sapiens, UniProt Q00534); test: Kinase panel profiling (Reaction Biology Corp); type: biochemical; conditions: CDK6/CyclinD3, kinase inhibition profile
Protocol: as §2

[18] = target: CK2α1 (Homo sapiens, UniProt P68400); test: Kinase panel profiling (Reaction Biology Corp); type: biochemical; conditions: CK2α1, kinase inhibition profile
Protocol: as §2

[19] = target: CK2α2 (Homo sapiens, UniProt P19784); test: Kinase panel profiling (Reaction Biology Corp); type: biochemical; conditions: CK2α2, kinase inhibition profile
Protocol: as §2

[20] = target: PIM3 (Homo sapiens, UniProt Q86V86); test: Kinase panel profiling (Reaction Biology Corp); type: biochemical; conditions: PIM3, kinase inhibition profile
Protocol: as §2

Sequence of CK2α1 (P68400 whole entry): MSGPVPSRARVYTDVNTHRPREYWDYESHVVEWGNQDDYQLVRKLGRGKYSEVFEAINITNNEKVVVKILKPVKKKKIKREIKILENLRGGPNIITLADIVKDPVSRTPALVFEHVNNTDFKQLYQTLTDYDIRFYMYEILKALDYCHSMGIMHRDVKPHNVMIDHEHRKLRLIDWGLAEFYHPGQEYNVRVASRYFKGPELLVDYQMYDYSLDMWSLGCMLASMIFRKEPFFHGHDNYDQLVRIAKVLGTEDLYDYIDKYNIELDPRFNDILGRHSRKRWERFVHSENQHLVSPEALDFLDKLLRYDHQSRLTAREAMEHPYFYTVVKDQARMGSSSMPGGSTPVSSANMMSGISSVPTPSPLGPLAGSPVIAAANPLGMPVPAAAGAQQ
Sequence of CDK5/P25 (Q00535 whole entry): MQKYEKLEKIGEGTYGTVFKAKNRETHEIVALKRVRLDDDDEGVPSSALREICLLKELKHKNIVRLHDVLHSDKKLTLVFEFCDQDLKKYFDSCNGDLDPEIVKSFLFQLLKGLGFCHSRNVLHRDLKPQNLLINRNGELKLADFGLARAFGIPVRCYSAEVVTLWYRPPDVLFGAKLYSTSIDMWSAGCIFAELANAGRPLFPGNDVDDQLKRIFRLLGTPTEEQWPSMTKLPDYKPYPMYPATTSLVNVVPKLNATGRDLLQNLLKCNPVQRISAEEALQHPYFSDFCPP
Sequence of CDK5/P25 (Q15078 99-307 partner limits assumed): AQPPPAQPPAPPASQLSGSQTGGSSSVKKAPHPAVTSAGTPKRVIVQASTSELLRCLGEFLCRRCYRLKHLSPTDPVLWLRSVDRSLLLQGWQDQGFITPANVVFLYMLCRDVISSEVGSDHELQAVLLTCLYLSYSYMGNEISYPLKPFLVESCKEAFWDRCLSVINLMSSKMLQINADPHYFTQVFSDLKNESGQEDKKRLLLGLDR
Sequence of CK2α2 (P19784 whole entry): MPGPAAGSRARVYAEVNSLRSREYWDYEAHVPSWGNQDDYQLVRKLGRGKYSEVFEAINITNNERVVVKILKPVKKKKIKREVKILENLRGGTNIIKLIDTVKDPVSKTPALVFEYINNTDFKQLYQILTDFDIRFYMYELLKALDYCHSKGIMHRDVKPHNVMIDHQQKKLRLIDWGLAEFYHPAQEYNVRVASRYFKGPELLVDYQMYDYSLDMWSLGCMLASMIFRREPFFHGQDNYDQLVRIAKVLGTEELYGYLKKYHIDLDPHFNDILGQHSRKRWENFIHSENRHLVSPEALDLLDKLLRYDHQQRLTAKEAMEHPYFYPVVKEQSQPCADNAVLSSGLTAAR
Sequence of CDK4/CyclinD3 (P11802 whole entry): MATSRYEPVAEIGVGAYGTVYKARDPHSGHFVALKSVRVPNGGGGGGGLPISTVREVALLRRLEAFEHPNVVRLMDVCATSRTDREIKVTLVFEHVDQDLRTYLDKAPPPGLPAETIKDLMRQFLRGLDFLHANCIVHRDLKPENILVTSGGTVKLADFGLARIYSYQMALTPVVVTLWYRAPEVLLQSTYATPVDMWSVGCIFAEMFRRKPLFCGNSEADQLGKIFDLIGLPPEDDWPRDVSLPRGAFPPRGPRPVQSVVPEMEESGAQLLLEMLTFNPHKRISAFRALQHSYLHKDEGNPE
Sequence of CDK4/CyclinD3 (P30281 whole entry partner): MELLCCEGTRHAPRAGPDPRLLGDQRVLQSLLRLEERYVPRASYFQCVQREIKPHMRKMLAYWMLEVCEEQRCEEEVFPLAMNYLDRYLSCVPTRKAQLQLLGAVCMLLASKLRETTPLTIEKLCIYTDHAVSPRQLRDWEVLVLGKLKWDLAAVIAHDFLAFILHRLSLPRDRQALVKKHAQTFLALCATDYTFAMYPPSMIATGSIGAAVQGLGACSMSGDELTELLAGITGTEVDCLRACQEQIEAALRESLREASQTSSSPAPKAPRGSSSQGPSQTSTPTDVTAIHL
Sequence of CDK4/CyclinD1 (P11802 whole entry): as the sequence (P11802 whole entry) above
Sequence of CDK4/CyclinD1 (P24385 whole entry partner): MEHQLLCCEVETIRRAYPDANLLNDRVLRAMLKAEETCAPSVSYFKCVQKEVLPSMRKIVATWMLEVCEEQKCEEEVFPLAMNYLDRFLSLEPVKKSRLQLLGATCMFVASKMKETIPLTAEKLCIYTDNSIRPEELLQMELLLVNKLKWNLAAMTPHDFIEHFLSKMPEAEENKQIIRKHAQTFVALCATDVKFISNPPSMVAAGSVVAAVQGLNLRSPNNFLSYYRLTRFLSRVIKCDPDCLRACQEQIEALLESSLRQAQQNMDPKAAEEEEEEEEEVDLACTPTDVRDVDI
Sequence of CDK6/CyclinD3 (Q00534 whole entry): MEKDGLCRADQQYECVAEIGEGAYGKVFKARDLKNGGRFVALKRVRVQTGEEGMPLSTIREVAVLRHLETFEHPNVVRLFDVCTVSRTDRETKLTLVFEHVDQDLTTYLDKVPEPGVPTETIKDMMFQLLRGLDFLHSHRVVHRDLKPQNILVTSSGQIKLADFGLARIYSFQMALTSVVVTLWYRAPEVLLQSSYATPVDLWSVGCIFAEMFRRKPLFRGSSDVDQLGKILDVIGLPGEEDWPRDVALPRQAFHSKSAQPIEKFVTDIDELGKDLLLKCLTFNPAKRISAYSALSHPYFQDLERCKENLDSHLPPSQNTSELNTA
Sequence of CDK6/CyclinD3 (P30281 whole entry partner): as the sequence (P30281 whole entry partner) above
Sequence of CDK6/CyclinD1 (Q00534 whole entry): as the sequence (Q00534 whole entry) above
Sequence of CDK6/CyclinD1 (P24385 whole entry partner): as the sequence (P24385 whole entry partner) above

SMILES: CC(=O)Oc1ccc(/C=C2\Sc3ccc(F)cc3NC2=O)cc1[N+](=O)[O-] [ON108110]
- GI50 [1]: > 5000 nM
- GI50 [2]: 2800 nM
- GI50 [3]: 2500 nM
- GI50 [4]: 150 nM
- GI50 [5]: 250 nM
- GI50 [6]: 300 nM
- GI50 [7]: 2200 nM
- GI50 [8]: > 5000 nM
- GI50 [9]: 800 nM
- GI50 [10]: 500 nM
- GI50 [11]: 2600 nM
- GI50 [12]: 600 nM
- IC50 [13]: 11 nM
- IC50 [14]: 15 nM
- IC50 [15]: 7 nM
- IC50 [16]: 2 nM
- IC50 [17]: 24 nM
- IC50 [18]: 3 nM
- IC50 [19]: 2 nM
- IC50 [20]: 2 nM
